Source: US20190224166A1, “Compositions and Methods for Treating Muscle Loss” (Augusta University Research Institute, Inc., priority 2018, published 2019)
“Also recorded” adds a separate entry of the source.

Assays:
tibialis anterior = assay: Muscle ROS by Amplex red assay in aged mice treated with 1-methyl-D-tryptophan; assay type: in vivo
Method: (§1) Female mice 22 months of age were obtained from the National Institute on Aging and treated with saline (vehicle) or 1-methyl-D-tryptophan (1-MT, Sigma, 452483, lot#MKBZ1441V) at a low dose (10 mg/kg BW) or at a high dose (100 mg/kg BW). Mice were treated daily for 4 weeks. Treatments were administered i.p. with an injection volume of 0.2 ml following IACUC approved procedures. Mice were euthanized by CO2 overdose and muscles harvested for analysis. One quadriceps muscle was snap frozen for proteomics and the other quadriceps muscle fixed in buffered formalin for paraffin embedding and trichrome staining. The tibialis anterior was placed in PBS for amplex red assay.

quadriceps muscle = assay: Proteomic analysis of quadriceps muscle of aged mice treated with 1-methyl-D-tryptophan (Table 1, TOPPGENE enrichment); assay type: in vivo
Method: as §1
The IDO inhibitor, 1-methyl-D-tryptophan, blocks kynurenine production and reduces levels of ROS in muscle.

C2C12 myoblasts = assay: ROS by Amplex red assay in C2C12 myoblasts treated with kynurenine; assay type: cell-based
Method: (§2) This example investigated the relationship between kynurenine, a circulating tryptophan metabolite which increases with age, and markers of muscle oxidative stress. C2C12 myoblasts were treated with kynurenine in a dose-dependent manner (0, 1, 10 μM) and reactive oxygen species (“ROS”) was measured using an Amplex red assay. Human myoblasts were also treated with kynurenine (100 μM) and ROS was measured. Female C57BL/6 mice 6 months of age were treated with kynurenine (10 mg/kg BW) or with saline (vehicle control) for 4 weeks. Muscle mass and fiber size were measured from the quadriceps femoris ex vivo, and ROS was measured from paraffin-embedded muscle sections using immunostaining for 4HNE.

human myoblasts = assay: ROS in human myoblasts treated with kynurenine; assay type: cell-based
Method: as §2

quadriceps femoris [1] = assay: Muscle mass and fiber size of quadriceps femoris ex vivo, mice treated with kynurenine for 4 weeks; assay type: in vivo, C57BL/6 mice; settings: young mice, kynurenine 10 mg/kg BW
Method: as §2

quadriceps femoris [2] = assay: Muscle ROS by 4HNE immunostaining of paraffin-embedded muscle sections, mice treated with kynurenine; assay type: in vivo, C57BL/6 mice; settings: young mice, kynurenine 10 mg/kg BW, 4 weeks, P<0.05
Method: as §2

[3] = aged mice, 1-methyl-D-tryptophan treatment
[4] = aged mouse muscle after 1-methyl-D-tryptophan treatment

| Structure (SMILES) | levels of ROS in muscle (Amplex red assay) (tibialis anterior; 1-methyl-D-tryptophan i.p. daily for 4 weeks) | kynurenine production (tibialis anterior; 1-methyl-D-tryptophan treatment) | factors associated with muscle oxidative stress (proteomic analysis) (quadriceps muscle; [3]) | levels of myosin 4 (proteomic analysis) (quadriceps muscle; [3]) | factors associated with muscle degradation (ubiquitin ligases) and oxidative stress (TOPPGENE enrichment of downregulated proteins) (quadriceps muscle; [4]) | factors associated with muscle protein synthesis (TOPPGENE enrichment of upregulated proteins) (quadriceps muscle; [4]) | reactive oxygen species (H2O2 concentration/protein concentration) (C2C12 myoblasts; 1 μm and 10 μm kynurenine, FIG. 1A) | ROS increase (C2C12 myoblasts; kynurenine at both low and high concentrations (1, 10 μM), P<0.01) [fold] | ROS (human myoblasts; 100 μM kynurenine) | reactive oxygen species (human myoblasts; 10 μm kynurenine, FIG. 1B) | quadriceps weight relative to body weight, reduction compared to controls (quadriceps femoris [1]) [%] | muscle fiber size compared to controls (quadriceps femoris [1]; P<0.01) | ROS increase based on 4HNE staining, compared to control (quadriceps femoris [2]) [%] |
| --- | --- | --- | --- | --- | --- | --- | --- | --- | --- | --- | --- | --- | --- |
| Cn1cc(C[C@@H](N)C(=O)O)c2ccccc21 [1-methyl-D-tryptophan, reference compound] | decrease | blocks | reduced; also recorded: decreases | increases | decreased levels | increased levels |  |  |  |  |  |  |  |
| Nc1ccccc1C(=O)CC(N)C(=O)O (stereo not shown) [kynurenine] |  |  |  |  |  |  | increases | 2 | increased | increases | 10 | significantly lower | 20 |
